From US20140080824A1, “STRUCTURE-GUIDED IDENTIFICATION OF BINDING INTERACTIONS OF HUMAN LAMININ RECEPTOR PRECURSOR WITH LAMININ AND IDENTIFICATION OF COMPOUNDS THAT AFFECT BINDING” (NEW YORK UNIVERSITY, priority 2010, published 2014) come the findings set out here.

“Also recorded” adds a separate entry of the source.

The test system of experiment [1] is HT1080 cells. Nature of the experiment: HT1080 cell migration towards 10% FBS. Format: cell-based, human. As to the method:
In order to understand how this in vitro result translated into the cellular context, the ability of cells to migrate toward growth medium was tested in the presence and absence of the LamR inhibitors of the present invention. Since LamR on the cell surface serves the purpose of binding extracellular matrix laminin and facilitates migration and metastasis, it was expected that as inhibitors of cell surface LamR, the compounds of the present invention would reduce the migratory capability of cells. […] The migration of HT1080 cells was reduced to a level equivalent to the no migration control of no serum (No FBS).
HT1080 cells were tested for their ability to migrate toward normal growth media supplemented with 10% FBS or to 10 μg/mL purified laminin (Invitrogen) using the CytoSelect™ 24-well cell migration assay (8 μm, Colorimetric Format) (Cell Biolabs, Inc.). HT1080 cells were obtained from the American Type Culture Collection (Manassas, Va.). HT1080 cells were maintained in Dulbecco's modified Eagle's medium—[…] with 10% FBS. […] After agitation for 10 min at room temperature in extraction solution, 100 μl of each sample was transferred to an ELISA plate and read at 630 nm. […] Results were plotted using GraphPad Prism software, and statistical significance was calculated using a standard Student's t-test.

Another experiment concerns the target LamR (Homo sapiens, UniProt P08865). Nature of the experiment: Small-molecule inhibition of recombinant LamR binding to laminin coated surface. The conditions noted are these: for Effect on LamR binding to laminin (in words): purified recombinant LamR, FIG. 8a; for Reduction of LamR binding to laminin relative to the vehicle control (DMSO alone): purified recombinant LamR pre-incubated with small molecule, dose-dependent (FIG. 8a). The procedure: Compounds that interact with this described pocket, MRT (LRI) and MRF (LRI-F), display the properties of LamR inhibitors and are preferred for use in the methods of the present application. […] Binding was not reduced by several negative control compounds (Negative and DBP).
(§1) Wild type and mutant LamR binding affinity for laminin were tested in vitro. Clear polystyrene ELISA 96-well microplates, pre-coated with murine laminin (NEBiolabs), were blocked for 1 hour at 37° C. with blocking buffer (2% FCS, 1 mg/ml BSA, 0.1% sodium azide in PBS). Wells were incubated with increasing concentrations of purified wild type or mutant LamR for 1 h at 37° C. If a small molecule's effects on laminin binding were to be determined, the small molecule was pre-incubated with purified LamR for 15 minutes at 37° C. prior to addition of the mixture to the pre-coated plate. Each well was washed three times with wash buffer (0.5% Tween in PBS). Penta-His HRP conjugate (1:500) (Qiagen) was incubated for 2 h at RT and wells were washed three times with wash buffer. Substrate solution was added and incubated for approximately 10 minutes before reading the fluorescent absorbance detected at 490 nm on an ELISA plate reader (ELX800, Biotek Instruments, Inc.). Controls for buffer alone and binding of a nonspecific protein, A. fulgidus S2p, were also tested. Experiments were performed in triplicate. A binding curve and Kd were generated for wild type and mutant LamR using Prism software. The Kd was calculated using a one-site binding hyperbola and the equation Y=Bmax×X/(Kd+X). Each group was tested in triplicate and binding affinity was determined by normalizing to background fluorescence.

Experiment [2] relates to HT1080 human fibrosarcoma cells. The experiment can be described thus: Experimental metastasis of luciferase expressing HT1080 cells in SCID mice. It is filed as in vivo. The text has this:
In addition, LamR has been described to be a critical factor of tumor metastasis. Clinical uses of the LamR inhibitors disclosed herein include their use as anti-metastatic anti-tumor agents. In a manner similar to that observed for the above-described in vitro cellular migration assays, compound LRI-F has such anti-metastatic properties in a murine model of experimental metastasis. […] Tumor cells were imaged via their expression of an exogenous firefly luciferase gene using the IVIS in vivo imaging system (Caliper/Xenogen).
Cells were washed once in PBS and re-suspended to a concentration of 1×10^6 cells/mL in PBS. 0.5 cc of the cell suspension (500,000 cells) was injected intravenously via the tail vein into SCID mice. Tumor implantation was monitored with IVIS Spectrum imaging technology (Caliper LS/Xenogen) following intra-peritoneal injection of luciferin substrate. Briefly, a camera is used to detect bioluminescent signal emitted from luciferase expressing cells. Mice are injected i.p. with 0.3 cc of 15 mg/mL beetle luciferin substrate (Promega) in PBS. Mice are anesthetized with isofluoran (2%)/oxygen mixture prior to imaging 5 minutes post substrate injection. Light is collected over a 1 minute imaging period at high binning to detect lung signal. Living Image Software version 3.0 (Caliper LS) is used to quantify and represent light signal.

The subject of experiment [3] is 3T3, HT1080 and C8161 cell lines. The experiment can be described thus: Cellular translation by 35S-methionine pulse-chase radiolabeling. It is filed as cell-based. The conditions noted are these: 10 μM, FIG. 9a. As to the method: As expected for compounds with these properties, the LamR inhibitors of the invention attenuated the translation process.
To label newly synthesized proteins, cells were pulsed with 20 μCi/mL ^35S-methionine radiolabeled amino acid (PerkinElmer) in standard growth media lacking methionine (MP Biomedicals) for 2 hours at 37° C. Following the pulse, normal growth medium was added for the chase to restore normal conditions for 90 minutes. MPER mammalian protein extraction reagent (Pierce) was used to lyse cells and collect protein. To quantity the amount of newly synthesized protein containing the radioisotope, 20 μg total protein was precipitated with 10% TCA for 20 minutes at 4° C. Precipitant was vacuum filtered and washed on glass microfiber filters (Whatman) using 5% TCA followed by 95% ethanol. Filters were dried under a heat lamp prior to addition of 3 mL scintillation fluid to count radioisotope incorporation by events on a Beckman LS3801 scintillation counter (Beckman). For measuring the effects small molecules had on the translation, cells in culture were pre-treated for 18 hours with 1-10 μM of small molecule prior to pulse/chase. As a control for arresting translation, 50 μg/mL cycloheximide was added 3 hours prior to assessment.

For experiment [4], the system named is HT1080 cells. Nature of the experiment: Growth inhibition of HT1080 cells. The conditions noted are these: FIG. 9b. It is filed as cell-based, human. The text has this: FIGS. 9a and 9b—Targeting LamR ribosomal and growth functions with inhibitors. (a) Inhibition of cellular translation in several cell lines by LamR inhibitor LRI-F (MRF/Face) by radiolabeled methionine pulse-chase. CHX, cycloheximide (b) Effects of treating HT1080 cells with LamR inhibitors. Dose dependent growth effects occur. *p-value <0.0001, n=3.
The analog compound LRI-F, an inhibitor of LamR, affected these functions.

Another experiment has as its system laminin. Nature of the experiment: In vitro binding affinity of wild type and mutant LamR for laminin (ELISA on laminin pre-coated plates). The conditions noted are these: immobilized laminin. More on the design: species or system murine. As to the method: as §1, with “Penta-His HRP conjugate (1:500) (Qiagen) was incubated for 2 h at RT and wells were washed three times with wash buffer.” left out, “Controls for buffer alone and binding of a nonspecific protein, A. fulgidus S2p, were also tested. Experiments were performed in triplicate. A binding curve and Kd were generated for wild type and mutant LamR using Prism software.” left out
In total, 14 mutants were analyzed individually (Table 1, FIG. 1a). […] The purity of the proteins was monitored by SDS ? […] Purified recombinant LamR220 (greater than 95% purity) was incubated in serial dilution on pre-coated laminin plates, and binding was detected by anti-His HRP. […]
(In general: In an ELISA, binding on a coated surface is turned into a signal by an enzyme label.)

As for `C[C@@H]1C[C@@H]([C@H](O)CC2CC(=O)NC(=O)C2)C(=O)[C@@H](C)C1` [CHX, cycloheximide, reference compound], in the experiment with HT1080 cells [1] (cells pre-treated 2 hours with 5-10 μM small molecule, CHX 50 μg/mL 3 hours, FIG. 8b), the “Migration of HT1080 cells to 10% serum after small molecule treatment” value is reported as “did not result in loss of migratory ability”.
As to `c1ccc2nc3c4ccccc4c4ccccc4c3nc2c1` [DBP, dibenzophenazine, reference compound], on LamR, the “Effect on LamR binding to laminin (in words)” value (“Effect on LamR binding” for short) is “not reduced”.
As for `S=C(Nc1ccc2nc3c4ccccc4c4ccccc4c3nc2c1)N1CCOCC1` [MRF, N-dibenzo[a,c]phenazin-11-yl-4-morpholinecarbothioamide], the “Tumor signal from the lungs” value in experiment [2] (0.42 mg/20 g injected subcutaneously once 2 hours post-injection of cells, FIG. 10c-d) was “decreased tumor signal from the lungs”. For the same molecule, in experiment [2] (cells pretreated with 10 μM before tail vein injection, SCID mice, FIG. 10a), the “Ability of HT1080 cells to implant into the lungs after intravenous injection” value was “marked decrease”. Also, the “Survival of mice compared to cells pretreated with DMSO vehicle” value in experiment [2] (cells pretreated with 10 μM, FIG. 10b) was “prolonged survival”. For the same molecule, on LamR, the “Reduction of LamR binding to laminin relative to the vehicle control (DMSO alone)” value was “approximately 50%” and the “Effect on LamR binding” value was “block recombinant LamR binding to purified laminin coated surface”. Also, the “Translation of newly synthesized proteins relative to untreated control” value in experiment [3] was “dramatic reduction”. Further, the “Growth effect in HT1080 cells” value in the experiment with HT1080 cells [4] is listed as “growth inhibitory effects in HT1080 cells in a dose-dependent manner”.
In the case of `O=C(NCCO)c1ccc2nc3c4ccccc4c4ccccc4c3nc2c1` [MRT, N-(2-hydroxyethyl)dibenzo[a,c]phenazine-11-carboxamide], at LamR, the “Reduction of LamR binding to laminin relative to the vehicle control (DMSO alone)” value is listed as “approximately 50%” and the “Effect on LamR binding” value is listed as “block recombinant LamR binding to purified laminin coated surface”.

B1: A. fulgidus S2p: Archaeoglobus fulgidus S2 ribosomal protein, non-laminin binding ortholog of LamR (protein, UniProt O29132 1-197, looked up)
Small ribosomal subunit …: MMEKEYEYLVPPDDYLAAGVHIGTQIKTGDMKKFIFKVRQDGLYVLDIRKLDERIRVAAKFLSRYEPSKILLVAARQYAHKPVQMFSKVVGSDYIVGRFIPGTLTNPMLSEYREPEVVFVNDPAIDKQAVSEATAVGIPVVALCDSNNSSADVDLVIPTNNKGRRALAIVYWLLAREIAKIRGQDFTYSIEDFEAEL
As to B1, in the experiment with laminin, the “Laminin binding activity (in words)” value is “does not exhibit laminin-binding activity; also recorded: no binding”. Also, the “Inhibition of cell migration towards 10% FBS by recombinant protein” value in the experiment with HT1080 cells [1] (recombinant protein 1 μM in lower reservoir, FIG. 3b) is listed as “not inhibited”.
